Where “and” joins values, the source holds several entries; their conditions need not be identical. Identical values can stand only once. Toxic doses and inconclusive results are not listed. Rule as the data show it: active = T/C of 150% or more; inactive = T/C below 125%.
Test system: L1210 leukemia ip in BDF1 mice, survival T/C
Experiment: NCI In Vivo Anticancer Drug Screen. Data for tumor model L1210 Leukemia (intraperitoneal) in B6D2F1 (BDF1) mice
Settings: endpoint: mean survival time, higher = longer survival
How it was run: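 Value reflects the ratio of survival in compound-treated mice to survival in vehicle-treated controls, with both groups carrying the same transplanted tumor.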

[1] = dose: 100.0 mg/kg/injection, schedule: Q01DX009 (ip), vehicle: Klucel (hydroxypropylcellulose) (HPC)
[2] = dose: 200.0 mg/kg/injection, schedule: Q01DX009 (ip), vehicle: Klucel (hydroxypropylcellulose) (HPC)
[3] = dose: 400.0 mg/kg/injection, schedule: Q01DX009 (ip), vehicle: Klucel (hydroxypropylcellulose) (HPC)
[4] = dose: 100.0 mg/kg/injection, schedule: Q01DX009 (ip), vehicle: saline with Tween-80
[5] = dose: 200.0 mg/kg/injection, schedule: Q01DX009 (ip), vehicle: saline with Tween-80
[6] = dose: 100.0 mg/kg/injection, schedule: Q04DX003 (ip), vehicle: saline with Tween-80
[7] = dose: 200.0 mg/kg/injection, schedule: Q04DX003 (ip), vehicle: saline with Tween-80
[8] = dose: 12.5 mg/kg/injection, schedule: Q04DX003 (ip), vehicle: Klucel (hydroxypropylcellulose) (HPC)
[9] = dose: 25.0 mg/kg/injection, schedule: Q04DX003 (ip), vehicle: Klucel (hydroxypropylcellulose) (HPC)
[10] = dose: 100.0 mg/kg/injection, schedule: Q01DX001 (ip), vehicle: Klucel (hydroxypropylcellulose) (HPC)
[11] = dose: 200.0 mg/kg/injection, schedule: Q01DX001 (ip), vehicle: Klucel (hydroxypropylcellulose) (HPC)
[12] = dose: 400.0 mg/kg/injection, schedule: Q01DX001 (ip), vehicle: Klucel (hydroxypropylcellulose) (HPC)
[13] = dose: 25.0 mg/kg/injection, schedule: Q01DX009 (ip), vehicle: saline with Tween-80
[14] = dose: 50.0 mg/kg/injection, schedule: Q01DX009 (ip), vehicle: saline with Tween-80
[15] = dose: 100.0 mg/kg/injection, schedule: Q01DX001 (ip), vehicle: carboxymethylcellulose (CMC)

Measured: T/C

CC(=O)N(c1ccccc1)c1nc(/C=N\NC(N)=S)cs1
inactive: [1] 105 % of control | [2] 106 % of control | [3] 100 % of control

Cc1cc(N(CCCOS(C)(=O)=O)CCCOS(C)(=O)=O)ccc1C=Nc1ccc(-c2nc(Cc3ccccc3)sc2C)cc1
inactive: [4] 96 % of control | [5] 98 % of control

CC(C)COC(=O)CCCCC(=O)OCC(C)C
inactive: [6] 113 % of control | [7] 107 % of control | dose: 400.0 mg/kg/injection, schedule: Q04DX003 (ip), vehicle: saline with Tween-80 110 % of control

O=C(OCCCCCCCCOC(=O)c1cccc([N+](=O)[O-])c1)c1cccc([N+](=O)[O-])c1
inactive: dose: 100.0 mg/kg/injection, schedule: Q01DX001 (ip), vehicle: other 102 % of control | dose: 200.0 mg/kg/injection, schedule: Q01DX001 (ip), vehicle: other 101 % of control | dose: 400.0 mg/kg/injection, schedule: Q01DX001 (ip), vehicle: other 96 % of control

Nc1ncnc2c1ncn2C1CC(O)C(O)CO1 (configuration not stated)
inactive: dose: 100.0 mg/kg/injection, schedule: Q01DX001 (ip), vehicle: saline 105 % of control | dose: 200.0 mg/kg/injection, schedule: Q01DX001 (ip), vehicle: saline 106 % of control | dose: 400.0 mg/kg/injection, schedule: Q01DX001 (ip), vehicle: saline 105 % of control

COc1ccccc1N1CCN(CCc2c[nH]c3cc4c(cc23)OCO4)CC1
inactive: dose: 3.12 mg/kg/injection, schedule: Q01DX009 (ip), vehicle: Klucel (hydroxypropylcellulose) (HPC) 103 % of control | dose: 6.25 mg/kg/injection, schedule: Q01DX009 (ip), vehicle: Klucel (hydroxypropylcellulose) (HPC) 97 % of control and 110 % of control | dose: 12.5 mg/kg/injection, schedule: Q01DX009 (ip), vehicle: Klucel (hydroxypropylcellulose) (HPC) 106 % of control and 111 % of control and 120 % of control | [8] 94 % of control | dose: 25.0 mg/kg/injection, schedule: Q01DX009 (ip), vehicle: Klucel (hydroxypropylcellulose) (HPC) 89 % of control | dose: 25.0 mg/kg/injection, schedule: Q01DX015 (ip), vehicle: carboxymethylcellulose (CMC) 102 % of control and 106 % of control | [9] 102 % of control | dose: 50.0 mg/kg/injection, schedule: Q01DX015 (ip), vehicle: carboxymethylcellulose (CMC) 104 % of control | dose: 50.0 mg/kg/injection, schedule: Q04DX003 (ip), vehicle: Klucel (hydroxypropylcellulose) (HPC) 105 % of control | [1] 112 % of control | dose: 100.0 mg/kg/injection, schedule: Q01DX015 (ip), vehicle: carboxymethylcellulose (CMC) 118 % of control | dose: 100.0 mg/kg/injection, schedule: Q04DX003 (ip), vehicle: Klucel (hydroxypropylcellulose) (HPC) 102 % of control

C#CC(C)N1CCC2(CC1)C(=O)NCN2c1ccccc1 (configuration not stated)
inactive: [10] 98 % of control | [11] 97 % of control | [12] 95 % of control

CCOC(=O)Nc1cc(N(C)CC(O)CN(C)c2ccccc2)c(N)c(N)n1 (configuration not stated)
inactive: [10] 106 % of control | [11] 107 % of control | [12] 105 % of control

[Br][La]([Br])[Br]
inactive: dose: 100.0 mg/kg/injection, schedule: Q04DX003 (ip), vehicle: saline 89 % of control | dose: 200.0 mg/kg/injection, schedule: Q04DX003 (ip), vehicle: saline 91 % of control | dose: 400.0 mg/kg/injection, schedule: Q04DX003 (ip), vehicle: saline 91 % of control

COc1ccc(OC)c(NC(=O)NNC(=O)c2ccccc2Cl)c1
inactive: [13] 100 % of control | [14] 91 % of control | [4] 94 % of control

OCC(O)COc1ccc(Cl)cc1Cl (configuration not stated)
inactive: [4] 105 % of control | [5] 101 % of control

O=C(SCCN1CCCC1)C(O)(c1ccccc1)C1CCCC1 (configuration not stated)
inactive: dose: 75.0 mg/kg/injection, schedule: Q01DX001 (ip), vehicle: carboxymethylcellulose (CMC) 92 % of control | dose: 150.0 mg/kg/injection, schedule: Q01DX001 (ip), vehicle: carboxymethylcellulose (CMC) 96 % of control | dose: 300.0 mg/kg/injection, schedule: Q01DX001 (ip), vehicle: carboxymethylcellulose (CMC) 96 % of control

Nc1nc2c(ncn2-c2cccc(-c3ccccc3)c2)c(=O)[nH]1
inactive: dose: 25.0 mg/kg/injection, schedule: Q04DX003 (ip), vehicle: saline with Tween-80 100 % of control | dose: 50.0 mg/kg/injection, schedule: Q04DX003 (ip), vehicle: saline with Tween-80 102 % of control | [6] 100 % of control | [7] 87 % of control

O=C(O)CC(=O)c1cccc([N+](=O)[O-])c1
inactive: [10] 104 % of control | [11] 97 % of control | [12] 96 % of control

CC(=O)C(C(C)=O)C(c1ccc2c(c1)OCO2)C(C(C)=O)C(C)=O
inactive: dose: 12.5 mg/kg/injection, schedule: Q01DX009 (ip), vehicle: saline with Tween-80 93 % of control | [13] 92 % of control | [14] 93 % of control and 92 % of control | [6] 86 % of control

O=C1C=CC(=O)C=C1
inactive: dose: 0.5 mg/kg/injection, schedule: Q01DX009 (ip), vehicle: saline 97 % of control | dose: 1.0 mg/kg/injection, schedule: Q01DX009 (ip), vehicle: saline 97 % of control | dose: 2.0 mg/kg/injection, schedule: Q01DX009 (ip), vehicle: saline 94 % of control | dose: 4.0 mg/kg/injection, schedule: Q01DX009 (ip), vehicle: saline 94 % of control

O=[N+]([O-])c1c(Cl)ccc2nsnc12
inactive: [8] 96 % of control | [9] 93 % of control

O=C(/C=C/c1cccc2ccccc12)c1cccc([N+](=O)[O-])c1
inactive: dose: 100.0 mg/kg/injection, schedule: Q04DX002 (ip), vehicle: gum acacia 88 % of control | dose: 200.0 mg/kg/injection, schedule: Q04DX002 (ip), vehicle: gum acacia 92 % of control | dose: 400.0 mg/kg/injection, schedule: Q04DX002 (ip), vehicle: gum acacia 96 % of control

CC1(C)CC(N)CC(C)(C)N1
inactive: dose: 50.0 mg/kg/injection, schedule: Q01DX001 (ip), vehicle: carboxymethylcellulose (CMC) 107 % of control | [15] 103 % of control

ClC(Cl)(Cl)C(c1cccs1)c1cccs1
inactive: [1] 94 % of control | dose: 100.0 mg/kg/injection, schedule: Q04DX002 (ip), vehicle: Klucel (hydroxypropylcellulose) (HPC) 93 % of control | [2] 94 % of control | dose: 200.0 mg/kg/injection, schedule: Q04DX002 (ip), vehicle: Klucel (hydroxypropylcellulose) (HPC) 96 % of control | [3] 94 % of control | dose: 400.0 mg/kg/injection, schedule: Q04DX002 (ip), vehicle: Klucel (hydroxypropylcellulose) (HPC) 96 % of control

C=CCOc1ccc2c(cc1=O)C(NC(C)=O)CCc1cc(OC)c(OC)c(OC)c1-2 (configuration not stated)
inactive: [15] 114 % of control | dose: 200.0 mg/kg/injection, schedule: Q01DX001 (ip), vehicle: carboxymethylcellulose (CMC) 120 % of control | dose: 400.0 mg/kg/injection, schedule: Q01DX001 (ip), vehicle: carboxymethylcellulose (CMC) 117 % of control

CC(CN(C)C)CN1c2ccccc2Sc2ccc(C(F)(F)F)cc21 (configuration not stated)
inactive: dose: 0.78 mg/kg/injection, schedule: Q04DX003 (ip), vehicle: saline 108 % of control | dose: 1.56 mg/kg/injection, schedule: Q01DX009 (ip), vehicle: saline 111 % of control | dose: 1.56 mg/kg/injection, schedule: Q04DX003 (ip), vehicle: saline 96 % of control | dose: 3.12 mg/kg/injection, schedule: Q01DX009 (ip), vehicle: saline 104 % of control | dose: 3.12 mg/kg/injection, schedule: Q04DX003 (ip), vehicle: saline 105 % of control | dose: 6.25 mg/kg/injection, schedule: Q01DX009 (ip), vehicle: saline 105 % of control | dose: 6.25 mg/kg/injection, schedule: Q04DX003 (ip), vehicle: saline 97 % of control | dose: 12.5 mg/kg/injection, schedule: Q01DX009 (ip), vehicle: saline 109 % of control | dose: 12.5 mg/kg/injection, schedule: Q04DX003 (ip), vehicle: saline 105 % of control | dose: 25.0 mg/kg/injection, schedule: Q04DX003 (ip), vehicle: saline 109 % of control

O=Nc1ccc2ccccc2c1N=Nc1ccccc1C(=O)O
inactive: [1] 101 % of control | [2] 100 % of control | [3] 103 % of control
